Laboratory results from patent US7456154B2 (priority 2001, dated 2008).
Several values for one entry are separate records, joined by “and”; a condition that tells them apart may be missing. Equal values may be shown once.

Experiments:
[1] = test system: AChE-S; experiment: AChE-S expression in mandibular lymph nodes of Crl:CD rats; assay type: in vivo, rat; conditions: 0.50 μg/g/day, 7 days; rEN101 oral or i.v., hEN101 i.v.
[2] = test system: AChE-R; experiment: Immunoblot densitometry of serum AChE-R in EAMG rats; assay type: in vivo, rat; conditions: 24 h after single i.v. injection of 250 μg/Kg
Procedure: Serum analyses: Blood samples drawn from EAMG rats and MG patients were subjected to non-denaturing gel electrophoresis as described [Kaufer et al. (1998) id ibid], as well as to catalytic activity measurements of AChE [Shapira et al. (2000) id ibid]. Iso-OMPA (tetraisopropylpyrophosphoramide, […]), was used to block butyrylcholinesterase activity in the serum samples. For activity staining on polyacrylamide gels [Kaufer et al. (1998) id ibid] we used 5-10−6 M iso-OMPA.
To evaluate the physiological outcome of this suppression, compound muscle action potentials (CMAPs) from the gastrocnemius muscle were recorded. […] The baseline decline, the percent difference in the heights of the fifth and the first evoked potentials, ranged from 10% to 36% (mean±SEM=13.0±2.5%, FIG. 9B, inset) as compared to 4.0±0.9% among healthy rats. The standard therapy for MG patients is administration of anti-cholinesterases, which elevate ACh levels to a threshold that enables receptor activation. Accordingly, neostigmine bromide (Prostigmine™, 75 μg/kg) was administered via i.p. This rapidly and effectively corrected the CMAP decline in EAMG rats, from 87.6% of the first evoked potential in untreated animals to […] of this level (i.e. 107.4%) of the first evoked potential). […]

[3] = test system: AChE-R mRNA; experiment: AChE-R mRNA in mandibular lymph nodes of Crl:CD rats; assay type: in vivo, rat; conditions: 0.50 μg/g/day, 7 days; rEN101 oral or i.v., hEN101 i.v.; vs saline
Procedure: A study of the potential efficacy as well as toxicity of hEN101 was conducted on 4 week-old Crl:CD rats. To groups of 12 animals (6 males, 6 females) were administered 0.0 (saline only), 0.50 or 2.50 μg/g/day of hEN101 by oral gavage (o.g.), 0.50 μg/g/day of rEN101 by o.g., or 0.50 μg/g/day of rEN101 or hEN101 by i.v. injection. Additionally, there was a control group that was not injected. For 7 days the animals were checked for gross signs of toxicity: mortality, body weight, food consumption, ophtalmology, hematology (peripheral blood), and blood chemistry. At 7 days they were sacrificed and examined post mortem for macroscopic pathology and organ weight. Fixed sections of brain (cerebellum, cerebrum, midbrain, medulla), heart (auricular and ventricular regions), kidneys (cortex, medulla, papilla regions), liver (all main lobes), lungs (two major lobes, including bronchi), lymph nodes (mandibular and mesenteric), spinal cord (transverse and longitudinal sections at cervical, lumbar and thoracic levels), caecum, colon, duodenum, ileum, jejunum, esophagus, rectum, spleen and stomach (keratinized, glandular and antrum) were stained with hematoxylin/eosin to reveal necrosis or cell death.
Mandibular lymph nodes were examined for the effect of EN101 on AChE-R mRNA. […]

[4] = test system: EAMG rats; experiment: Treadmill running time and clinical status of EAMG rats; assay type: in vivo, rat; conditions: for Treadmill Performance Time: individual EAMG rat; for Clinical score: individual rat
[5] = test system: AChE-S mRNA; experiment: In situ hybridization of AChE-S mRNA in rat muscle; assay type: in vivo; conditions: 24 h after single i.v. injection
Procedure: In situ hybridization: Tissues were fixed in 4% paraformaldehyde and cut into 7 μm paraffin embedded sections. Spinal cord sections were deparaffinized, rehydrated using serial ethanol dilutions and permeabilized with proteinase K (10 μg/ml at room temp.). Slides were exposed to 5′ biotinylated, fully 2′-oxymethylated AChE-R or AChE-S-specific 50-mer cRNA probes complementary to human ACHE pseudo-intron 4 or exon 6, respectively [Grisaru et al. (2001) id ibid.]. Hybridization was performed overnight at 52° C. in hybridization mixture containing 10 μg/ml probe, 50 μg/ml yeast tRNA, 50 μg/ml heparin and 50% formamide in 375 mM Na chloride, 37.5 mM Na citrate, pH 4.5. For monkey sections, the probe was constructed according to the human AChE-R sequence; for rat sections, according to the mouse sequence. Slides were washed to remove non-hybridized probe, blocked with 1% skim milk containing 0.01% Tween-20 and 2 mM levamisole, an alkaline phosphatase inhibitor used to suppress non-specific staining and incubate with streptavidin-alkaline phosphatase (Amersham Pharmacia). Fast Red™ substrate (Roche Diagnostics) was used for detection. DAPI staining (Sigma Chemical Co., St. Louis, Mo., USA) served to visualize nuclei. Microscope images were analyzed with Image Pro Plus 4.0 (Media Cybernetics) software. […]

[6] = test system: healthy rats; experiment: Treadmill running time of healthy rats; assay type: in vivo, rat; conditions: 250 μg/Kg
Procedure: Exercise training on treadmill: To establish a clinical measure of neuromuscular performance in EAMG rats, a treadmill assay was performed. Animals were placed on an electrically powered treadmill [Moran et al. (1996) J Therm Biol 21, 171-181] at 25 m/min (a physical effort of moderate intensity) until visibly fatigued. The amount of time the rats were able to run was recorded before and after anti-sense or Mestinon® treatment.

[7] = Stability of hEN101 in human plasma and blood; assay type: in vitro ADME
Procedure: Exposure at room temperature to Li-heparin-treated blood caused a decay of hEN101 with a half-life in the order of 30 min.

## 5′-CTGCGATATTTTCTTGTACC-3′ (chemistry not given here) [rEN101]
[1]
  Expression of AChE-S synaptic variant in mandibular lymph nodes: did not affect the expression
[2]
  Serum AChE-R level: reducing its serum level
[3]
  AChE-R mRNA levels in mandibular lymph nodes: inconsistent in depressing AChE-R mRNA levels
[4]; EAMG disease grade 2, 250 μg/Kg i.v., 24 h
  Treadmill running time after treatment: 488 ± 58 s
[4]; EAMG disease grade 2, 25 m/min
  Treadmill running time before treatment: 247 ± 35 s
[4]; EAMG disease grade 3, 250 μg/Kg i.v., 24 h
  Treadmill running time after treatment: 500 ± 193 s
[4]; EAMG disease grade 3, 25 m/min
  Treadmill running time before treatment: 179 ± 21 s
[4]; EAMG disease grade 4, 250 μg/Kg i.v., 24 h
  Treadmill running time after treatment: 212 ± 59 s
[4]; EAMG disease grade 4, 25 m/min
  Treadmill running time before treatment: 32 ± 6 s
[5]
  AChE-S mRNA labeling in muscle: only nominally affected
[6]
  Effect on treadmill running of healthy animals: not significantly affected

## 5′-CTGCCACGTTCTCCTGCACC-3′ [hEN101]
[1]
  Expression of AChE-S synaptic variant in mandibular lymph nodes: did not affect the expression
[3]
  AChE-R mRNA levels in mandibular lymph nodes: inconsistent in depressing AChE-R mRNA levels
[4]; 0.25 μg/g oral single dose
  Effect on muscle stamina in EAMG rats: promoted muscle stamina
[4]; 5 h, 0.25 μg/g oral single dose
  Treadmill Performance Time: 300 s and 120 s and 150 s and 70 s
[4]; 24 h, 0.25 μg/g oral single dose
  Treadmill Performance Time: 345 s and 170 s and 380 s and 360 s and 30 s
[4]; 24 h, scale 0 to 5 (death), 0.25 μg/g oral single dose
  Clinical score: (1) (3×) and (2) and |||| (3) and (3)
[4]; 48 h, 0.25 μg/g oral single dose
  Treadmill Performance Time: 85 s and 290 s
[4]; 48 h, scale 0 to 5 (death), 0.25 μg/g oral single dose
  Clinical score: 2.5 and 2 and || (5)
[4]; before (basal), 0.25 μg/g oral single dose
  Treadmill Performance Time: 210 s and 80 s and 180 s and 30 s and 110 s and 0 s
[4]; before (basal), scale 0 (no weakness) to 5 (death)
  Clinical score: (2.5) (2×) and 3 and (3.5) and (3) and 3.5
[7]; 2 h in human plasma with EDTA at room temperature
  Stability, remaining concentration: > 90 % of original concentration
[7]; Li-heparin-treated blood at room temperature
  Half-life of decay: ~30 min
[7]; after 1 month at −20° C.
  Stability, remaining concentration: > 90 % of original concentration
[7]; following three freeze/thawing cycles
  Stability, remaining concentration: > 90 % of original concentration
